Data from US20210084902A1, “FUNGICIDAL MIXTURE COMPRISING SUBSTITUTED 3-PHENYL-5-(TRIFLUOROMETHYL)-1,2,4-OXADIAZOLES” (BASF SE, priority 2017, published 2021).
Where two headings read alike, the source gives them in different places.

How the values were obtained:
Type in all cases: cell-based
[1] = test system: Leptosphaeria nodorum; assay: Fungicidal activity against Leptosphaeria nodorum, microtiter plate (MTP) test
[2] = test system: Botrytis cinerea; assay: Fungicidal activity against Botrytis cinerea, micro titer plate (MTP) test; settings: Botrytis cinerea, 168 h, read-out: Observed efficacy
[3] = test system: Colletotrichum orbiculare; assay: Fungicidal activity against Colletotrichum orbiculare in the microtiterplate test; settings: for inhibition of growth at 6.3e-05 ppm: 0.000063 ppm
[4] = test system: Septoria tritici; assay: Fungicidal activity against Septoria tritici, micro titer plate (MTP) test; settings: Zymoseptoria tritici, 168 h, read-out: Observed efficacy
[5] = test system: Pyricularia oryzae; assay: microbe, parasite or virus in culture; settings: Pyricularia oryzae, 168 h, read-out: Observed efficacy
[6] = Parastagonospora nodorum, 168 h, 0.063 ppm, read-out: Observed efficacy
[7] = Colletotrichum orbiculare, read-out: Observed efficacy
[8] = Table V.4, component B alone, 0.063 ppm
[9] = Colletotrichum orbiculare, 0.25 ppm, read-out: Observed efficacy
[10] = Parastagonospora nodorum, 168 h, read-out: Observed efficacy
[11] = Parastagonospora nodorum, 168 h, 0.25 ppm, read-out: Observed efficacy
[12] = Table V.4, component B alone, 0.25 ppm
[13] = Parastagonospora nodorum, 168 h, 0.004 ppm, read-out: Observed efficacy
[14] = Colletotrichum orbiculare, 0.016 ppm, read-out: Observed efficacy
[15] = Colletotrichum orbiculare, 0.063 ppm, read-out: Observed efficacy
[16] = Colletotrichum orbiculare, 0.00025 ppm, read-out: Observed efficacy
[17] = Colletotrichum orbiculare, 0.001 ppm, read-out: Observed efficacy

Work on `CNC(=O)C(=N/OC)/C(C)=C\COc1ccn(-c2ccc(Cl)cc2Cl)n1` [A.1.34, (Z,2E)-5-[1-(2,4-dichlorophenyl)pyrazol-3-yl]-oxy-2-methoxyimino-N,3-dimethyl-pent-3-enamide] yielded an inhibition of growth at […] [1, 6] of 45%, an inhibition of growth at 16 ppm ([2]; component B alone) of 2% and an inhibition of growth at 63 ppm ([2]; component B alone) of 18%. It also gave an inhibition of growth at 6.3e-05 ppm [3, 7] of 37%.
Work on `Cn1nc(C(F)F)c(C(=O)Nc2ccccc2Oc2ccc(C(F)(F)F)cc2Cl)c1F` [A.3.29, N-[2-[2-chloro-4-(trifluoromethyl)phenoxy]phenyl]-3-(difluoromethyl)-5-fluoro-1-methyl-pyrazole-4-carboxamide] yielded an inhibition of growth at […] [4, 8] of 68%, an inhibition of growth at 1 ppm [5] of 14% and an inhibition of growth at […] ([2]; component B alone, 0.25 ppm) of 55%. For the same molecule, the inhibition of growth at […] [3, 9] was 4% and the inhibition of growth at 1 ppm [3, 7] was 11%.
`CCCCNC(=O)n1c(NC(=O)OC)nc2ccccc21` [Benomyl, benomyl] gave an inhibition of growth at 1 ppm [1, 10] of 15%, an inhibition of growth at […] ([2]; component B alone, 0.016 ppm) of 8% and an inhibition of growth at 9 ppm ([3]; Colletotrichum orbiculare, 9 ppm, read-out: Observed efficacy) of 38%.
Molecule `O=C1C2CC=CCC2C(=O)N1SC(Cl)(Cl)Cl` (stereo not shown) [Captan, captan] has an inhibition of growth at […] [1, 11] of 13%, an inhibition of growth at 1 ppm [1, 10] of 44% and an inhibition of growth at […] [4, 12] of 22%. For the same molecule, the inhibition of growth at 1 ppm [5] was 53%, the inhibition of growth at […] ([2]; component B alone, 0.25 ppm) was 20% and the inhibition of growth at 1 ppm ([2]; component B alone) was 73%. The inhibition of growth at […] [3, 9] was 21%.
`N#Cc1c(Cl)c(Cl)c(Cl)c(C#N)c1Cl` [Chlorothalonil, chlorothalonil] showed an inhibition of growth at 1 ppm [1, 10] of 72%, an inhibition of growth at […] [4, 12] of 25% and an inhibition of growth at 1 ppm ([2]; component B alone) of 22%.
For `Cc1ccc(-c2c(Cl)nc(C#N)n2S(=O)(=O)N(C)C)cc1` [Cyazofamid, cyazofamid], the inhibition of growth at […] [1, 11] was 6%, the inhibition of growth at 4 ppm ([4]; Table V.4, component B alone) was 2% and the inhibition of growth at 16 ppm ([4]; Table V.4, component B alone) was 8%. It also gave an inhibition of growth at 4 ppm [5] of 13%.
Molecule `Cc1cc(C2CC2)nc(Nc2ccccc2)n1` [Cyprodinil, cyprodinil] has an inhibition of growth at 0.004 ppm [1, 13] of 71%, an inhibition of growth at 1 ppm [5] of 56% and an inhibition of growth at 1 ppm ([2]; component B alone) of 66%. The inhibition of growth at 1 ppm [3, 7] was 35% and the inhibition of growth at 4 ppm [3, 7] was 38%.
Work on `CC1COC(Cn2cncn2)(c2ccc(Oc3ccc(Cl)cc3)cc2Cl)O1` (stereo not shown) [Difenoconazol, difenoconazole] yielded an inhibition of growth at […] [1, 6] of 41%, an inhibition of growth at […] ([4]; Table V.4, component B alone, 0.016 ppm) of 4% and an inhibition of growth at […] [3, 14] of 1%. For the same molecule, the inhibition of growth at […] [3, 9] was 14%.
`COc1ccc(C(=CC(=O)N2CCOCC2)c2ccc(Cl)cc2)cc1OC` [Dimethomorph, dimethomorph] gave an inhibition of growth at 4 ppm [1, 10] of 41%, an inhibition of growth at 4 ppm ([4]; Table V.4, component B alone) of 11% and an inhibition of growth at 1 ppm [5] of 4%. The inhibition of growth at 4 ppm [5] was 8% and the inhibition of growth at 4 ppm [3, 7] was 21%.
`CC(Cc1ccc(C(C)(C)C)cc1)CN1CCCCC1` (stereo not shown) [Fenpropidin, fenpropidin] gave an inhibition of growth at 1 ppm [1, 10] of 38%, an inhibition of growth at 1 ppm ([4]; Table V.4, component B alone) of 1% and an inhibition of growth at 4 ppm ([2]; component B alone) of 28%. The inhibition of growth at 1 ppm [3, 7] was 9% and the inhibition of growth at 4 ppm [3, 7] was 47%.
With `CC(Cc1ccc(C(C)(C)C)cc1)CN1C[C@@H](C)O[C@@H](C)C1` (stereo partly shown) [Fenpropimorph, fenpropimorph] the inhibition of growth at […] [4, 12] was 0%, the inhibition of growth at 1 ppm [5] was 8% and the inhibition of growth at […] ([2]; component B alone, 0.25 ppm) was 29%. The inhibition of growth at […] [3, 9] was 5% and the inhibition of growth at 1 ppm [3, 7] was 19%.
`CO/N=C(/C1=NOCCO1)c1ccccc1Oc1ncnc(Oc2ccccc2Cl)c1F` [Fluoxastrobin, fluoxastrobin] showed an inhibition of growth at […] [1, 11] of 38%, an inhibition of growth at […] [4, 8] of 3% and an inhibition of growth at […] [4, 12] of 32%. It also gave an inhibition of growth at […] [3, 15] of 51%.
Work on `O=C1c2ccccc2C(=O)N1SC(Cl)(Cl)Cl` [Folpet, folpet] yielded an inhibition of growth at 1 ppm [1, 10] of 40%, an inhibition of growth at 1 ppm ([4]; Table V.4, component B alone) of 70% and an inhibition of growth at 1 ppm [5] of 14%. For the same molecule, the inhibition of growth at 1 ppm ([2]; component B alone) was 13% and the inhibition of growth at 1 ppm [3, 7] was 20%.
In the case of `CNC(=O)c1ccc(-c2noc(C(F)(F)F)n2)cc1` [I.A, N-methyl-4-[5-(trifluoromethyl)-1,2,4-oxadiazol-3-yl]benzamide], the inhibition of growth at […] [1, 6] is reported as 3%, the inhibition of growth at 1 ppm [1, 10] is reported as 6% and the inhibition of growth at 4 ppm [1, 10] is reported as 14%. The inhibition of growth at 16 ppm [1, 10] was 27%, the inhibition of growth at […] ([4]; Table V.7, I.A alone, 0.063 ppm) was 3% and the inhibition of growth at […] ([4]; Table V.7, I.A alone, 0.25 ppm) was 2%. For the same molecule, the inhibition of growth at 1 ppm ([4]; Table V.7, I.A alone) was 0%, the inhibition of growth at 4 ppm ([4]; Table V.7, I.A alone) was 8% and the inhibition of growth at 16 ppm ([4]; Table V.7, I.A alone) was 19%. The inhibition of growth at 1 ppm [5] was 6%, the inhibition of growth at 4 ppm [5] was 12% and the inhibition of growth at 16 ppm [5] was 38%. For the same molecule, the inhibition of growth at […] ([2]; I.A alone, 0.25 ppm) was 3%, the inhibition of growth at 4 ppm ([2]; I.A alone) was 1% and the inhibition of growth at 16 ppm ([2]; I.A alone) was 12%. It also gave an inhibition of growth at […] [3, 16] of 2%, an inhibition of growth at 0.001 ppm [3, 17] of 2% and an inhibition of growth at 0.004 ppm [3, 7] of 2%. For the same molecule, the inhibition of growth at […] [3, 14] was 2% and the inhibition of growth at […] [3, 15] was 71%.
With `O=C(Nc1ccccc1F)c1ccc(-c2noc(C(F)(F)F)n2)cc1` [I.E, N-(2-fluorophenyl)-4-[5-(trifluoromethyl)-1,2,4-oxadiazol-3-yl]benzamide] the inhibition of growth at 16 ppm [1, 10] was 18%, the inhibition of growth at 63 ppm ([1]; Parastagonospora nodorum, 168 h, 63 ppm, read-out: Observed efficacy) was 22% and the inhibition of growth at […] ([4]; Table V.6, I.E alone, 0.25 ppm) was 13%. It also gave an inhibition of growth at 4 ppm ([4]; Table V.6, I.E alone) of 7%, an inhibition of growth at 16 ppm ([4]; Table V.6, I.E alone) of 13% and an inhibition of growth at 63 ppm ([4]; Table V.6, I.E alone, 63 ppm) of 14%. For the same molecule, the inhibition of growth at 1 ppm [5] was 5%, the inhibition of growth at 4 ppm [5] was 5% and the inhibition of growth at 16 ppm [5] was 6%. It also gave an inhibition of growth at 63 ppm [5] of 9%, an inhibition of growth at […] ([2]; I.E alone, 0.063 ppm) of 2% and an inhibition of growth at 1 ppm ([2]; I.E alone) of 2%. The inhibition of growth at 4 ppm ([2]; I.E alone) was 2%, the inhibition of growth at 16 ppm ([2]; I.E alone) was 3% and the inhibition of growth at 63 ppm ([2]; I.E alone) was 16%. It also gave an inhibition of growth at […] [3, 9] of 4%, an inhibition of growth at 1 ppm [3, 7] of 4% and an inhibition of growth at 4 ppm [3, 7] of 11%. It also gave an inhibition of growth at 16 ppm ([3]; Colletotrichum orbiculare, 16 ppm, read-out: Observed efficacy) of 52%.
With `CNC(=S)c1ccc(-c2noc(C(F)(F)F)n2)cc1` [I.M, N-methyl-4-[5-(trifluoromethyl)-1,2,4-oxadiazol-3-yl]benzenecarbothioamide] the inhibition of growth at 0.004 ppm [1, 13] was 6%, the inhibition of growth at […] ([1]; Parastagonospora nodorum, 168 h, 0.016 ppm, read-out: Observed efficacy) was 5% and the inhibition of growth at […] [1, 11] was 7%. The inhibition of growth at 1 ppm [1, 10] was 18%, the inhibition of growth at 4 ppm [1, 10] was 52% and the inhibition of growth at […] ([4]; Table V.5, I.M alone, 0.063 ppm) was 14%. The inhibition of growth at […] ([4]; Table V.5, I.M alone, 0.25 ppm) was 23%, the inhibition of growth at 1 ppm ([4]; Table V.5, I.M alone) was 35% and the inhibition of growth at 4 ppm ([4]; Table V.5, I.M alone) was 42%. The inhibition of growth at 1 ppm [5] was 9%, the inhibition of growth at 4 ppm [5] was 32% and the inhibition of growth at […] ([2]; I.M alone, 0.063 ppm) was 1%. It also gave an inhibition of growth at […] ([2]; I.M alone, 0.25 ppm) of 2%, an inhibition of growth at 1 ppm ([2]; I.M alone) of 0% and an inhibition of growth at 4 ppm ([2]; I.M alone) of 15%. It also gave an inhibition of growth at 6.3e-05 ppm [3, 7] of 2%, an inhibition of growth at […] [3, 16] of 2% and an inhibition of growth at 0.001 ppm [3, 17] of 1%. It also gave an inhibition of growth at 0.004 ppm [3, 7] of 1% and an inhibition of growth at […] [3, 14] of 7%.
`CCN(C)C=Nc1cc(Br)c(OC2CCC(C(C)C)CC2)nc1C` (stereo not shown) [K.1.32, N′-[5-bromo-6-(4-isopropylcyclohexoxy)-2-methyl-3-pyridyl]-N-ethyl-N-methyl-formamidine] gave an inhibition of growth at […] [1, 11] of 40%, an inhibition of growth at […] [4, 12] of 0% and an inhibition of growth at 1 ppm ([4]; Table V.4, component B alone) of 0%. For the same molecule, the inhibition of growth at […] [3, 9] was 26%.
In the case of `CC(O)(Cn1cncn1)c1ccc(Oc2ccc(Cl)cc2)cc1C(F)(F)F` (stereo not shown) [Mefentrifluconazol, mefentrifluconazole], the Observed efficacy ([1]; 0.004 ppm) is reported as 53 and the Observed efficacy ([3]; 0.001 ppm) is reported as 1.
Molecule `CNC(=O)/C(=N/OC)c1ccccc1Oc1ccccc1` [Metominostrobin, metominostrobin] has an inhibition of growth at 1 ppm [1, 10] of 43%, an inhibition of growth at 1 ppm ([4]; Table V.4, component B alone) of 46% and an inhibition of growth at 1 ppm [5] of 59%.
